By melting point is commonly meant the temperature of the solid-liquid transition.

One series deals with T1, human KDR enzyme (Homo sapiens, UniProt P35968).
T1 construct: The cytoplasmic domain of the human KDR enzyme; GST; made in house; host or cells: SF21 insect cells (baculovirus)
Put plainly: KDR substrate (PLCγ) phosphorylation, scintillation assay. The format is biochemical. Conditions: 10 μM; read-out: KDR % inhib at 10 μM. An outline of the steps: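 GST-fused human KDR cytoplasmic domain from SF21 cells (about 60% pure, 100 ng) phosphorylated 2 μg of GST-PLCγ SH2-SH3 fragment. The trigger solution held γ33P-ATP with 2 μM cold ATP, in MOPS buffer pH 7.2 with Mg2+, Mn2+, vanadate and NaF. Reactions ran 1 h at 37 °C, were stopped with EDTA and counted by scintillation; results are % inhibition versus the no-compound control.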

The subject of the next series is c-Src protein. Put plainly: Src kinase phosphorylation of biotinylated cdc2 substrate, fluorescence (DELFIA). It counts as biochemical, human. The method in brief: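 Recombinant human c-Src (SH3, SH2 and catalytic domains; baculovirus) phosphorylates biotinylated cdc2 substrate in 50 mM Tris, 10 mM MgCl2 with 10 μM ATP, 60 min at 30° C. Product captured on streptavidin and detected by Europium-anti-phosphotyrosine fluorescence (DELFIA). Reported as % inhibition of no-compound control.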

T1 sequence (P35968 786-1356 limits assumed): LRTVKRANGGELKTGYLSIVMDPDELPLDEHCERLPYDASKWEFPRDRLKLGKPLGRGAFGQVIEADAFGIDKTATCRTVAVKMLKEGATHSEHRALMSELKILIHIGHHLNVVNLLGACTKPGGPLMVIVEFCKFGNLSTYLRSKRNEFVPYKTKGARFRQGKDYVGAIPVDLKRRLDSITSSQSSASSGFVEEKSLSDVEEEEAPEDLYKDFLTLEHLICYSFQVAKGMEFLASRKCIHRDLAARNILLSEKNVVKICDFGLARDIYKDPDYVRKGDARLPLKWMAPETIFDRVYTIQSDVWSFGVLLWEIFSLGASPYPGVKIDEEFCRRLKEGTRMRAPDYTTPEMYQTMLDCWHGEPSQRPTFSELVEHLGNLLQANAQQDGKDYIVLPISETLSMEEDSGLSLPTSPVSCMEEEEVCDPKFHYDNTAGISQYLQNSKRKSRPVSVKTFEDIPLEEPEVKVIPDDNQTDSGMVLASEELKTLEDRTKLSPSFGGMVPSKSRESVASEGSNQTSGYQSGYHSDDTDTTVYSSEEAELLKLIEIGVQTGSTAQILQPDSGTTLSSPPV

For the molecule `CS(=O)(=O)c1ccccc1S(=O)(=O)Nc1ccc2[nH]nc(-c3ccc(Cl)cc3)c2c1` [Example 30, N-[3-(4-Chlorophenyl)-1H-indazol-5-yl]-2-methylsulfonylbenzenesulfonamide], the melting point is 242 °C. Besides, the inhibition at 10 µM on human KDR enzyme was found to be 85%. Further, the “SRC % inhib at 10 μM” value with c-Src protein came to 72%.
Consider `CS(=O)(=O)c1ccccc1S(=O)(=O)Nc1ccc2[nH]nc(-c3ccc[nH]3)c2c1` [Example 60, 2-Methylsulfonyl-N-[3-(1H-pyrrol-2-yl)-1H-indazol-5-yl]benzenesulfonamide], for which the melting point turned out to be 255 °C. The inhibition at 10 µM on human KDR enzyme is 64%. Moreover, the “SRC % inhib at 10 μM” value with c-Src protein came out at 98%.
With `CS(=O)(=O)c1ccccc1S(=O)(=O)Nc1ccc2[nH]nc(-c3cccc(N)c3)c2c1` [Example 62, N-[3-(3-Aminophenyl)-1H-indazol-5-yl]-2-methylsulfonylbenzenesulfonamide], the melting point came out at 220 °C. For the same molecule, the inhibition at 10 µM at human KDR enzyme was determined as 74%. Further, the “SRC % inhib at 10 μM” value in the series on c-Src protein is 95%.
In the same order, the values of `CS(=O)(=O)c1ccccc1S(=O)(=O)Nc1ccc2[nH]nc(-c3cc4ccccc4s3)c2c1` [Example 65, N-(3-Benzo[b]thiophen-2-yl-1H-indazol-5-yl)-2-methylsulfonylbenzenesulfonamide] are 270 °C, 73% and 96%.
For `O=S(=O)(Nc1ccc2[nH]nc(-c3ccccc3)c2c1)c1ccc(Cl)s1` [Example 135, 5-Chloro-N-(3-phenyl-1H-indazol-5-yl)thiophene-2-sulfonamide], the inhibition at 10 µM on human KDR enzyme stood at 91%. In addition, the “SRC % inhib at 10 μM” value in the series with c-Src protein is on record as 54%.
On the same counts, the results for `Cc1cccc(S(=O)(=O)Nc2ccc3[nH]nc(-c4ccccc4)c3c2)c1` [Example 138, 3-Methyl-N-(3-phenyl-1H-indazol-5-yl)-benzenesulfonamide] are 92% and 39%.
In the same order, the values of `O=S(=O)(Nc1ccc2[nH]nc(-c3ccccc3)c2c1)c1ccc(F)c(F)c1` [Example 152, 3,4-Difluoro-N-(3-phenyl-1H-indazol-5-yl)-benzenesulfonamide] are 93% and 43%.
In the case of `N#Cc1cccc(S(=O)(=O)Nc2ccc3[nH]nc(-c4ccccc4)c3c2)c1` [Example 154, 3-Cyano-N-(3-phenyl-1H-indazol-5-yl)-benzenesulfonamide], the inhibition at 10 µM on human KDR enzyme amounted to 96%. In addition, the “SRC % inhib at 10 μM” value in the series on c-Src protein was 44%.
With `COc1cccc(S(=O)(=O)Nc2ccc3[nH]nc(-c4ccccc4)c3c2)c1` [Example 156, 3-Methoxy-N-(3-phenyl-1H-indazol-5-yl)-benzenesulfonamide], on human KDR enzyme, the inhibition at 10 µM amounted to 94%. Also, the “SRC % inhib at 10 μM” value with c-Src protein is given as 57%.
Regarding `O=S(=O)(Nc1ccc2[nH]nc(-c3ccccc3)c2c1)c1cc(F)cc(F)c1` [Example 158, 3,5-Difluoro-N-(3-phenyl-1H-indazol-5-yl)-benzenesulfonamide], the inhibition at 10 µM at human KDR enzyme was determined as 96%. The “SRC % inhib at 10 μM” value with c-Src protein was 75%.

Source of the values: US6858638B2, “Substituted indazoles, compositions containing them, method of production and use” (Aventis Pharma S.A., priority 2002, dated 2005).
